Structures can show the parent of a compound that is named as a salt. Where two headings read alike, the source gives them in different places.
Legend:
all PDE isoforms = assay: HTS using all PDE isoforms as targets; type: biochemical; details: for inhibitory efficacy in all PDE isoforms: Example 18 screening, compared with cilostazol; for IC50: across PDE isoforms, FIG. 31
Description: Compounds included in the library of 800 FDA-approved drugs were diluted 1/4 from a concentration of 100 μM and dispensed into each well in 96-well plates, and mixed with a PDE reactant to allow a PDE reaction with the drug for 1 hour at a constant temperature.
The experiment was carried out in the same manner as used in screening of the FDA-approved drug library. […] Each of the screening library drugs were diluted 1/4 from 100 μM and dispensed into each well in 96-well plates, and mixed with a PDE reactant, followed by allowing a reaction between the drug and PDE for 1 hour for storage. After a stop solution was mixed with a AMP detection agent, the mixture was dispensed at 20 μl per well to allow a reaction for 10 minutes, followed by immediately measuring luminescence, and the experiment was performed according to a protocol provided by the kit used herein.
The first selection started with PDE3 as a target, and after candidate drugs were selected, all PDE isoforms were tested.

mouse pericytes [1] = assay: Lysosome pH in bafilomycin A1-treated pericytes (LysoSensor, confocal microscope); type: cell-based; details: mouse pericytes treated with bafilomycin A1 alone
From the text: A system that can visualize changes in intracellular lysosome pH with LysoSensor, which is a pH-sensitive lysosomal dye, in mouse pericytes using a confocal microscope was established (refer to Example 6) to observe whether amlexanox (AMX) is involved in the pH change of lysosomes in cells.
FIG. 19 is a set of time-dependent confocal microscope images (left) of mouse pericytes when being treated with Bafilomycin A1, which is a vATPase inhibitor, and then stained with LysoSensor, and quantified data (right) thereof.
Here, the images on the left side of FIG. 19 are obtained by treating mouse pericytes with bafilomycin A1, which is a vATPase inhibitor, and analyzing the cells using LysoSensor over time by a confocal microscope (top), and by treating the bafilomycin A1-treated mouse pericytes with the finally selected amlexanox (AMX) and analyzing the cells using LysoSensor over time by a confocal microscope (bottom).

cathepsin L = assay: Lysosomal function activity in astrocytes: degree of hydrolysis of cathepsin L; type: cell-based, mouse; details: mouse astrocytes treated with bafilomycin A1 alone
Description: (§1) Samples stained with enzymatic dyes such as cathepsin B and cathepsin L were administered into the cell culture to allow a reaction for 30 minutes, and changes in activity of lysosomes in cells were confirmed using a confocal microscope.
(§2) Astrocytes were stained with a fluorescence-tagged lysosomal protein, and the degrees of hydrolysis of cathepsin B and cathepsin L, which are lysosomal proteins, were analyzed.
(§3) FIG. 21 is a set of time-dependent confocal microscope images of mouse astrocytes, which are treated with bafilomycin A1, which is a vATPase inhibitor, to assess the degree of hydrolysis of cathepsin B (top) and cathepsin L (bottom).

cathepsin B = assay: Lysosomal function activity in astrocytes: degree of hydrolysis of cathepsin B; type: cell-based, mouse; details: mouse astrocytes treated with bafilomycin A1 alone
Description: as §1, §2, §3

mouse pericytes [2] = assay: Amyloid beta aggregation in pericytes treated with cilostazol (confocal microscopy, western blotting); type: cell-based; details: 1 hour (confocal) and 24 hours (western blot)
Description: Each type of cell was cultured under the culture conditions, a cell culture was restored, followed by preparing a particulate fraction in a 50 mM Tris buffer. Proteins obtained from the cell culture developed in a SDS polyacrylamide gel, transferred to an immobilon-P membrane (Millipore, USA), and reacted with antibodies overnight. Next day, western blots were washed, reacted with peroxidase-linked secondary antibodies at room temperature for 1 hour, followed by staining bands with 4-chloro-1-naphthol. From the result of Example 1, PDE3, which is specifically highly expressed in pericytes, is selected as a target material. It was observed how the treatment of cilostazol known as a specific inhibitor of PDE3 affects amyloid beta accumulation. FIG. 5 is a set of confocal microscope images of mouse pericytes which are cultured and then treated with CTL (control), amyloid beta (Aβ) and cilostazol (amyloid beta+cilostazol; +cilo) for 1 hour, respectively. The graph on the right side of FIG. 5 is obtained by observing pericytes treated with CTL (control), amyloid beta (Aβ) and cilostazol (amyloid beta+cilostazol; +cilo) for 1 hour, and measuring the fluorescence intensities thereof. […] The graph on the right side of FIG. 6 is obtained by measuring an oligomer/actin expression level and a monomer/actin expression level in each group.

mouse astrocytes = assay: Lysosome pH change in astrocytes (LysoSensor Green DND-189, acridine orange); type: cell-based; details: amyloid beta-accumulated
Description: For astrocyte culture, first, cerebral cortices (neocortices) were dissociated from murine fetuses (3 weeks old), and the obtained cortical tissue was divided into single cells. Subsequently, the single cells were seeded, and the cultured astrocytes were stored using a culture medium (DMEM 7% FBS+7% HS+100 U/mL penicillin+100 μg/mL […]) in a humidified incubator at 37[…] under a condition of 5% carbon dioxide. After DIV 10-14, cells grown to 80-90% or more confluence were used, and before an experiment, the cells were washed twice with warm MEM and used. New cells were cultured and used each time without passaging.
FIG. 8A is a set of images that visualize pH changes for 0 to 1 hour in respective groups of mouse astrocytes, which are stained with LysoSensor Green DND-189, and then treated with either amyloid beta (Aβ) or amyloid beta and cilostazol (Aβ+cilo).

Row | Compound | inhibitory efficacy in all PDE isoforms (all PDE isoforms) | other results
1 | Cc1nc(N)sc1-c1ccnc(Nc2ccc(N3CCOCC3)cc2)n1 [CYC116] | high inhibitory efficacy | –
2 | CCc1ccc(OCc2ccccc2C(=O)Nc2ccc3nc(C)cc(N)c3c2)cc1.Cl [JTC-801] | high inhibitory efficacy | –
3 | OCc1ccc(-c2ccc(-c3ccc(CO)s3)o2)s1 [RITA, 5,5′-(2,5-furandiyl)bis-2-thiophenemethanol] | high inhibitory efficacy | –
4 | O=C(O)c1cccc(-c2noc(-c3ccccc3F)n2)c1 [ataluren] | high inhibitory efficacy | –
5 | CO/C1=C\C(C)=C\[C@@H](C)[C@@H](O)[C@@H](C)C/C(C)=C/C=C/[C@H](OC)[C@@H]([C@@H](C)[C@@H](O)[C@H](C)[C@@]2(O)C[C@@H](O)[C@H](C)[C@@H](C(C)C)O2)OC1=O [bafilomycin A1] | – | lysosomal pH (mouse pericytes [1]): increased; cathepsin L (lysosomal protein activity) (cathepsin L): decreased; cathepsin B (lysosomal protein activity) (cathepsin B): decreased
6 | O=C1CCc2cc(OCCCCc3nnnn3C3CCCCC3)ccc2N1 [cilostazol] | – | amount of aggregated amyloid beta (mouse pericytes [2]): significantly reduced; lysosomal function (mouse astrocytes): normalized; pH of lysosomes (mouse astrocytes): acidified
7 | CN1CCN(c2ccc3nc(-c4c(N)c5c(F)cccc5[nH]c4=O)[nH]c3c2)CC1 [dovitinib] | high inhibitory efficacy | –
8 | Cc1nc(-c2ccc(OCC(C)C)c(C#N)c2)sc1C(=O)O [febuxostat] | high inhibitory efficacy | –
9 | Oc1c(Cl)cc(Cl)c(Cl)c1Cc1c(O)c(Cl)cc(Cl)c1Cl [hexachloropene] | high inhibitory efficacy | –
10 | Cc1ccc(NC(=O)c2ccc(CN3CCN(C)CC3)cc2)cc1Nc1nccc(-c2cccnc2)n1 [imatinib mesylate] | high inhibitory efficacy | –
11 | Cc1ccc(NC(=O)c2ccc(CN3CCN(C)CC3)cc2)cc1Nc1nc(-c2cccnc2)cs1 [masitinib] | high inhibitory efficacy | –
12 | COC1=CC(c2cc3ccccc3[nH]2)=N/C1=C\c1[nH]c(C)cc1C [obatoclax mesylate] | high inhibitory efficacy | –
13 | Oc1cc(O)cc(/C=C/c2ccc(O)c(O)c2)c1 [piceathanol] | high inhibitory efficacy | IC50 (all PDE isoforms; read-out: inhibition value of each isoform, lowest): ≥ 0.0003 µM; IC50 (all PDE isoforms; read-out: inhibition value of each isoform, maximum): ≤ 5.5 µM
14 | Oc1ccc(/C=C/c2cc(O)cc(O)c2)cc1 [resveratrol] | high inhibitory efficacy | –
15 | pifithrin | high inhibitory efficacy | –
16 | zafirlukast | high inhibitory efficacy | –

From US20210220340A1, “COMPOSITION FOR PREVENTION OR TREATMENT OF NEURODEGENERATIVE DISEASE” (THE ASAN FOUNDATION, priority 2018, published 2021)
